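GI50 marks 50% less growth. TGI is the concentration that stops growth completely.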
Columns and labels:
Assay in all cases: NCI anticancer screen, dose series, 384-well format
SF-539 CNS = test system: SF-539 CNS
COLO 205 colon = test system: COLO 205 colon
OVCAR-4 ovarian = test system: OVCAR-4 ovarian
IGROV1 ovarian = test system: IGROV1 ovarian
MDA-MB-468 breast = test system: MDA-MB-468 breast
HOP-62 NSCLC = test system: HOP-62 NSCLC
CAKI-1 renal = test system: CAKI-1 renal
U251 glioblastoma = test system: U251 glioblastoma
KM12 colon = test system: KM12 colon
HOP-92 NSCLC = test system: HOP-92 NSCLC
ACHN renal = test system: ACHN renal
DU-145 prostate = test system: DU-145 prostate
M14 melanoma = test system: M14 melanoma
SK-MEL-28 melanoma = test system: SK-MEL-28 melanoma
BT-549 breast = test system: BT-549 breast
K-562 leukemia = test system: K-562 leukemia
UACC-62 melanoma = test system: UACC-62 melanoma
RPMI-8226 leukemia = test system: RPMI-8226 leukemia
A498 renal = test system: A498 renal
OVCAR-8 ovarian = test system: OVCAR-8 ovarian
SK-OV-3 ovarian = test system: SK-OV-3 ovarian
HL-60(TB) leukemia = test system: HL-60(TB) leukemia
CCRF-CEM leukemia = test system: CCRF-CEM leukemia
HT29 colon = test system: HT29 colon
SF-295 CNS = test system: SF-295 CNS
NCI-H23 lung = test system: NCI-H23 lung
SF-268 CNS = test system: SF-268 CNS
OVCAR-5 ovarian = test system: OVCAR-5 ovarian

## NS(=O)(=O)OC[C@@H]1C[C@@H](n2ccc3c(NC4CCc5ccccc54)ncnc32)C[C@@H]1O (stereo not given in full)
SF-539 CNS
  TGI: 260 nM
COLO 205 colon
  GI50: 40.6 nM
  TGI: 292 nM
OVCAR-4 ovarian
  GI50: 210 nM
  TGI: 799 nM
IGROV1 ovarian
  GI50: 257 nM
  TGI: 4400 nM
MDA-MB-468 breast
  GI50: 13.5 nM
  TGI: 64.9 nM
HOP-62 NSCLC
  GI50: 114 nM
  TGI: 372 nM
CAKI-1 renal
  GI50: 76.4 nM
  TGI: > 100000 nM
U251 glioblastoma
  GI50: 254 nM
  TGI: 12500 nM
KM12 colon
  GI50: 255 nM
  TGI: 4950 nM
HOP-92 NSCLC
  GI50: 439 nM
  TGI: 18800 nM
ACHN renal
  GI50: 227 nM
  TGI: 735 nM
DU-145 prostate
  GI50: 68.6 nM
  TGI: 14000 nM
M14 melanoma
  GI50: 151 nM
  TGI: 1050 nM
SK-MEL-28 melanoma
  GI50: 163 nM
  TGI: 1880 nM
BT-549 breast
  GI50: 56.7 nM
  TGI: 491 nM
K-562 leukemia
  GI50: 62.7 nM
  TGI: 10900 nM
UACC-62 melanoma
  GI50: 20.2 nM
  TGI: 137 nM
RPMI-8226 leukemia
  GI50: 126 nM
  TGI: 1560 nM
A498 renal
  GI50: 43.8 nM
  TGI: 10400 nM
OVCAR-8 ovarian
  GI50: 119 nM
  TGI: 316 nM
SK-OV-3 ovarian
  GI50: 206 nM
  TGI: 703 nM
HL-60(TB) leukemia
  GI50: 10.9 nM
  TGI: 26.6 nM
CCRF-CEM leukemia
  GI50: 24.6 nM
  TGI: 126 nM
HT29 colon
  GI50: 256 nM
  TGI: 11600 nM
SF-295 CNS
  GI50: 176 nM
  TGI: 333 nM
NCI-H23 lung
  GI50: 212 nM
  TGI: 1380 nM
SF-268 CNS
  GI50: 238 nM
  TGI: 4970 nM
OVCAR-5 ovarian
  GI50: 554 nM
  TGI: 13600 nM
